According to ChEMBL document CHEMBL1909046, “DrugMatrix in vitro pharmacology data”:

Test system: not listed separately
Experiment: DRUGMATRIX: Glutamate, Kainate radioligand binding (ligand: [3H] Kainic acid)
Type: cell membranes, Rattus norvegicus, Wistar, Brain, Membrane
Details: Not Active = under 50% inhibition at 10 µM

| SMILES | IC50 | Ki |
| --- | --- | --- |
| C[C@]12CC[C@@H](O)C[C@@H]1CC[C@@H]1[C@@H]2CC[C@]2(C)C(=O)CC[C@@H]12 [ANDROSTERONE] | Not Active | Not Active |
| CC12CCC(CC1)C(C)(C)O2 [EUCALYPTOL] | Not Active | Not Active |
| Nc1nc(N)c2nc(CNc3ccc(C(=O)N[C@@H](CCC(=O)O)C(=O)O)cc3)cnc2n1 [AMINOPTERIN] | Not Active | Not Active |
| Nc1ccc(Cc2ccc(N)cc2)cc1 | Not Active | Not Active |

Target: T1, Alpha-1A adrenergic receptor (Rattus norvegicus, UniProt P43140)
T1 sequence (P43140 whole entry): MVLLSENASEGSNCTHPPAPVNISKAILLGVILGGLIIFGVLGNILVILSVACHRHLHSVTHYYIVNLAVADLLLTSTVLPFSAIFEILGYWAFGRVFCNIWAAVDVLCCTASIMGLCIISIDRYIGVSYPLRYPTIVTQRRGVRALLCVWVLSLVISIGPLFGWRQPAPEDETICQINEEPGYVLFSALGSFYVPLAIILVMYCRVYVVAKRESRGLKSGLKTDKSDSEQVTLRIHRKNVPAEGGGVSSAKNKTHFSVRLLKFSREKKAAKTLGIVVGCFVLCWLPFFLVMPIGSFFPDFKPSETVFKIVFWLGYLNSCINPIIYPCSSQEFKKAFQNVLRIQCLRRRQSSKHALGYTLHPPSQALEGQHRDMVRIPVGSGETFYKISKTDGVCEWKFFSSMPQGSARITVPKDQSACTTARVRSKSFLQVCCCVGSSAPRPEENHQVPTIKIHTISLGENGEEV
Experiment: DRUGMATRIX: Alpha-1A adrenergic receptor radioligand binding (ligand: prazosin)
Type: cell membranes, Wistar, Submaxillary gland, Membrane
Details: Not Active = under 50% inhibition at 10 µM

| SMILES | IC50 |
| --- | --- |
| C[C@]12CC[C@@H](O)C[C@@H]1CC[C@@H]1[C@@H]2CC[C@]2(C)C(=O)CC[C@@H]12 [ANDROSTERONE] | Not Active |
| CC12CCC(CC1)C(C)(C)O2 [EUCALYPTOL] | Not Active |
| Nc1nc(N)c2nc(CNc3ccc(C(=O)N[C@@H](CCC(=O)O)C(=O)O)cc3)cnc2n1 [AMINOPTERIN] | Not Active |
| Nc1ccc(Cc2ccc(N)cc2)cc1 | Not Active |

Target: Cytochrome P450 2C9 (Homo sapiens, UniProt P11712); further: in other assays of this panel Not Active means under 50% inhibition at 10 µM
Sequence (P11712 whole entry): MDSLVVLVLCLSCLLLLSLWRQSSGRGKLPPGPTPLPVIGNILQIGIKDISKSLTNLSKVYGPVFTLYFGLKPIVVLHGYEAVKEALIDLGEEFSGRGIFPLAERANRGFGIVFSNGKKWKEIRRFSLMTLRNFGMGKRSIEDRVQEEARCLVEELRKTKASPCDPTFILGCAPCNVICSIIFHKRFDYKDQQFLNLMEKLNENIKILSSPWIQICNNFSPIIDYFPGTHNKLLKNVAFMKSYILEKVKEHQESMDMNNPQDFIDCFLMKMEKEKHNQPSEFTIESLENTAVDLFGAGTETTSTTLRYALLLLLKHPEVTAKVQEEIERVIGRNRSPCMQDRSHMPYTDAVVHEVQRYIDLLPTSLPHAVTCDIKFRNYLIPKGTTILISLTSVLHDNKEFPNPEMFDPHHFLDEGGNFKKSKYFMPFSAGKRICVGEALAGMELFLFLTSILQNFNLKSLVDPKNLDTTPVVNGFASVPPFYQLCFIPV
Experiment: not given
Details: bti-tn-5b1-4

| SMILES | IC50 | Ki |
| --- | --- | --- |
| C[C@]12CC[C@@H](O)C[C@@H]1CC[C@@H]1[C@@H]2CC[C@]2(C)C(=O)CC[C@@H]12 [ANDROSTERONE] | Not Active | Not Active |
| CC12CCC(CC1)C(C)(C)O2 [EUCALYPTOL] | Not Active | Not Active |
| Nc1nc(N)c2nc(CNc3ccc(C(=O)N[C@@H](CCC(=O)O)C(=O)O)cc3)cnc2n1 [AMINOPTERIN] | Not Active | Not Active |
| Nc1ccc(Cc2ccc(N)cc2)cc1 | Not Active | Not Active |

Test system: not listed separately
Experiment: DRUGMATRIX: Interleukin IL-1 radioligand binding (ligand: [125I] interleukin 1beta)
Type: cell membranes, Membrane
Details: nih3t3; Not Active = under 50% inhibition at 10 µM

| SMILES | IC50 | Ki |
| --- | --- | --- |
| C[C@]12CC[C@@H](O)C[C@@H]1CC[C@@H]1[C@@H]2CC[C@]2(C)C(=O)CC[C@@H]12 [ANDROSTERONE] | Not Active | Not Active |
| CC12CCC(CC1)C(C)(C)O2 [EUCALYPTOL] | Not Active | Not Active |
| Nc1nc(N)c2nc(CNc3ccc(C(=O)N[C@@H](CCC(=O)O)C(=O)O)cc3)cnc2n1 [AMINOPTERIN] | Not Active | Not Active |
| Nc1ccc(Cc2ccc(N)cc2)cc1 | Not Active | Not Active |

Target: T2, Progesterone receptor (Bos taurus, UniProt Q690N0)
T2 sequence (Q690N0 whole entry): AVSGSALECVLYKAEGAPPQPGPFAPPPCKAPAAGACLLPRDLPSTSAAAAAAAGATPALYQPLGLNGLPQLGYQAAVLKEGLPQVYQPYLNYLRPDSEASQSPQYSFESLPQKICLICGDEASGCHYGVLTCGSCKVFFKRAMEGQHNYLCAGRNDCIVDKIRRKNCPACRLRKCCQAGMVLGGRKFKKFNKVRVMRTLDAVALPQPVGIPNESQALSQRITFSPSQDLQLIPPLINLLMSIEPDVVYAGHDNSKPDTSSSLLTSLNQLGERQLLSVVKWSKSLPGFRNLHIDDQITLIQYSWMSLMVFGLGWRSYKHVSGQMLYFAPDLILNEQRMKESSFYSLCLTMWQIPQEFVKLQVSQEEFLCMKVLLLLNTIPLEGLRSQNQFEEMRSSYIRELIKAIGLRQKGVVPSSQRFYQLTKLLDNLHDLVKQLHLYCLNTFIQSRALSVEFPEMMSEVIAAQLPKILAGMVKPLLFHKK
Experiment: DRUGMATRIX: Progesterone radioligand binding (ligand: [3H] R-5020)
Type: tissue-based, Uterus
Details: Not Active = under 50% inhibition at 10 µM

| SMILES | IC50 |
| --- | --- |
| C[C@]12CC[C@@H](O)C[C@@H]1CC[C@@H]1[C@@H]2CC[C@]2(C)C(=O)CC[C@@H]12 [ANDROSTERONE] | Not Active |
| CC12CCC(CC1)C(C)(C)O2 [EUCALYPTOL] | Not Active |
| Nc1nc(N)c2nc(CNc3ccc(C(=O)N[C@@H](CCC(=O)O)C(=O)O)cc3)cnc2n1 [AMINOPTERIN] | Not Active |
| Nc1ccc(Cc2ccc(N)cc2)cc1 | Not Active |

Test system: not listed separately
Experiment: DRUGMATRIX: Potassium Channel [KATP] radioligand binding (ligand: [3H] Glyburide)
Type: cell membranes, Membrane
Details: hit-t15; Not Active = under 50% inhibition at 10 µM

| SMILES | IC50 | Ki |
| --- | --- | --- |
| C[C@]12CC[C@@H](O)C[C@@H]1CC[C@@H]1[C@@H]2CC[C@]2(C)C(=O)CC[C@@H]12 [ANDROSTERONE] | Not Active | Not Active |
| CC12CCC(CC1)C(C)(C)O2 [EUCALYPTOL] | Not Active | Not Active |
| Nc1nc(N)c2nc(CNc3ccc(C(=O)N[C@@H](CCC(=O)O)C(=O)O)cc3)cnc2n1 [AMINOPTERIN] | Not Active | Not Active |
| Nc1ccc(Cc2ccc(N)cc2)cc1 | Not Active | Not Active |

Target: T3, Interstitial collagenase (Homo sapiens, UniProt P03956);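 further: MMP-1 enzyme inhibition assay using a peptide substrate; in other assays of this panel Not Active means under 50% inhibition at 10 µM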
T3 sequence (P03956 whole entry): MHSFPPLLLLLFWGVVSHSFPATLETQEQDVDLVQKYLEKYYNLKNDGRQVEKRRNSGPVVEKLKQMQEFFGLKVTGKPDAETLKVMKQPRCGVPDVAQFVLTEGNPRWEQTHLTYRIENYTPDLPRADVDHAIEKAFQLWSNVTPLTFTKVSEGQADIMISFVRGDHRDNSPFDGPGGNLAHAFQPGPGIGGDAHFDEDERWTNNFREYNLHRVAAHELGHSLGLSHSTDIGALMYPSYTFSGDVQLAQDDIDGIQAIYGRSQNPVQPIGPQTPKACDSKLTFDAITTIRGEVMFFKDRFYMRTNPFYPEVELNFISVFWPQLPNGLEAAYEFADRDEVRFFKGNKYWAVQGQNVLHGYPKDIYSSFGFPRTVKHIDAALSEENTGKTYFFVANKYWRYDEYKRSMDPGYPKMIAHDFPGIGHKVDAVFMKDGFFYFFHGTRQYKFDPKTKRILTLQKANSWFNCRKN
Experiment: biochemical
Type: tissue-based, Rheumatoid synovial fibroblasts
Details: not given

| SMILES | IC50 |
| --- | --- |
| C[C@]12CC[C@@H](O)C[C@@H]1CC[C@@H]1[C@@H]2CC[C@]2(C)C(=O)CC[C@@H]12 [ANDROSTERONE] | Not Active |
| CC12CCC(CC1)C(C)(C)O2 [EUCALYPTOL] | Not Active |
| Nc1nc(N)c2nc(CNc3ccc(C(=O)N[C@@H](CCC(=O)O)C(=O)O)cc3)cnc2n1 [AMINOPTERIN] | Not Active |
| Nc1ccc(Cc2ccc(N)cc2)cc1 | Not Active |

Target: Cytochrome P450 2C19 (Homo sapiens, UniProt P33261); further: in other assays of this panel Not Active means under 50% inhibition at 10 µM
Sequence (P33261 whole entry): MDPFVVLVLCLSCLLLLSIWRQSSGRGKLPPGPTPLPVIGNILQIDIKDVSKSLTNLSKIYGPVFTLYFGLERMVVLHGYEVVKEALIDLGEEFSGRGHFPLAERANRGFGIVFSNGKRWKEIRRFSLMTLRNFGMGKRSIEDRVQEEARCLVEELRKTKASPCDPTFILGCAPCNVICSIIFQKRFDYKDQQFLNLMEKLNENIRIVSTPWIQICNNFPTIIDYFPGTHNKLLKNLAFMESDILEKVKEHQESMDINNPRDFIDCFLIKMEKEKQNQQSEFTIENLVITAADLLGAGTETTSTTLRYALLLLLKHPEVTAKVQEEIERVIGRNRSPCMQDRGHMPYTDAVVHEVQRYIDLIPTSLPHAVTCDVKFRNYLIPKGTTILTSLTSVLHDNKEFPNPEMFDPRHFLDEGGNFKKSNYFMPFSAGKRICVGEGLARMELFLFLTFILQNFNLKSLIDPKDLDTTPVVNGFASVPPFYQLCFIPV
Experiment: not given
Details: bti-tn-5b1-4

| SMILES | IC50 | Ki |
| --- | --- | --- |
| C[C@]12CC[C@@H](O)C[C@@H]1CC[C@@H]1[C@@H]2CC[C@]2(C)C(=O)CC[C@@H]12 [ANDROSTERONE] | Not Active | Not Active |
| CC12CCC(CC1)C(C)(C)O2 [EUCALYPTOL] | Not Active | Not Active |
| Nc1nc(N)c2nc(CNc3ccc(C(=O)N[C@@H](CCC(=O)O)C(=O)O)cc3)cnc2n1 [AMINOPTERIN] | Not Active | Not Active |
| Nc1ccc(Cc2ccc(N)cc2)cc1 | Not Active | Not Active |
